Assay results from patent US11851446B2, “Probes for imaging Huntingtin protein” (CHDI Foundation, Inc., priority 2014, dated 2023).

Tested on: recombinant tau and amyloid β1-42 (Aβ1-42) aggregates
Test: not given
Settings: higher affinity for the tau aggregates than Aβ1-42 aggregates; cited from earlier work
In the case of `CN(C)c1ccc(/C=C/c2nc3ccc(I)cc3[nH]2)cc1` [SBIM-3, 4-[(E)-2-(6-iodo-1H-benzimidazol-2-yl)ethenyl]-N,N-dimethylaniline], the “ratio of Kd values (tau aggregates vs Aβ1-42 aggregates)” value is given as 2.73.

Tested on: NFT in sections of AD brain tissue
Test: not given
Settings: in vitro autoradiography and fluorescent staining; cited from earlier work
In the case of `CN(C)c1ccc(/C=C/c2nc3ccc(I)cc3[nH]2)cc1` [SBIM-3, 4-[(E)-2-(6-iodo-1H-benzimidazol-2-yl)ethenyl]-N,N-dimethylaniline], the “binding to NFT in sections of AD brain tissue” value is listed as “bound NFT”.

Target: T1, Q46 protein aggregates (Homo sapiens, UniProt P42858, INS38QQQQQQQQQQQQQQQQQQQQQQQQQ)
T1 construct: fused on or other part: GST at the N-terminus, cut off by thrombin before the test to start aggregation
T1 sequence (P42858 with tags, fused parts or gaps with the stated changes): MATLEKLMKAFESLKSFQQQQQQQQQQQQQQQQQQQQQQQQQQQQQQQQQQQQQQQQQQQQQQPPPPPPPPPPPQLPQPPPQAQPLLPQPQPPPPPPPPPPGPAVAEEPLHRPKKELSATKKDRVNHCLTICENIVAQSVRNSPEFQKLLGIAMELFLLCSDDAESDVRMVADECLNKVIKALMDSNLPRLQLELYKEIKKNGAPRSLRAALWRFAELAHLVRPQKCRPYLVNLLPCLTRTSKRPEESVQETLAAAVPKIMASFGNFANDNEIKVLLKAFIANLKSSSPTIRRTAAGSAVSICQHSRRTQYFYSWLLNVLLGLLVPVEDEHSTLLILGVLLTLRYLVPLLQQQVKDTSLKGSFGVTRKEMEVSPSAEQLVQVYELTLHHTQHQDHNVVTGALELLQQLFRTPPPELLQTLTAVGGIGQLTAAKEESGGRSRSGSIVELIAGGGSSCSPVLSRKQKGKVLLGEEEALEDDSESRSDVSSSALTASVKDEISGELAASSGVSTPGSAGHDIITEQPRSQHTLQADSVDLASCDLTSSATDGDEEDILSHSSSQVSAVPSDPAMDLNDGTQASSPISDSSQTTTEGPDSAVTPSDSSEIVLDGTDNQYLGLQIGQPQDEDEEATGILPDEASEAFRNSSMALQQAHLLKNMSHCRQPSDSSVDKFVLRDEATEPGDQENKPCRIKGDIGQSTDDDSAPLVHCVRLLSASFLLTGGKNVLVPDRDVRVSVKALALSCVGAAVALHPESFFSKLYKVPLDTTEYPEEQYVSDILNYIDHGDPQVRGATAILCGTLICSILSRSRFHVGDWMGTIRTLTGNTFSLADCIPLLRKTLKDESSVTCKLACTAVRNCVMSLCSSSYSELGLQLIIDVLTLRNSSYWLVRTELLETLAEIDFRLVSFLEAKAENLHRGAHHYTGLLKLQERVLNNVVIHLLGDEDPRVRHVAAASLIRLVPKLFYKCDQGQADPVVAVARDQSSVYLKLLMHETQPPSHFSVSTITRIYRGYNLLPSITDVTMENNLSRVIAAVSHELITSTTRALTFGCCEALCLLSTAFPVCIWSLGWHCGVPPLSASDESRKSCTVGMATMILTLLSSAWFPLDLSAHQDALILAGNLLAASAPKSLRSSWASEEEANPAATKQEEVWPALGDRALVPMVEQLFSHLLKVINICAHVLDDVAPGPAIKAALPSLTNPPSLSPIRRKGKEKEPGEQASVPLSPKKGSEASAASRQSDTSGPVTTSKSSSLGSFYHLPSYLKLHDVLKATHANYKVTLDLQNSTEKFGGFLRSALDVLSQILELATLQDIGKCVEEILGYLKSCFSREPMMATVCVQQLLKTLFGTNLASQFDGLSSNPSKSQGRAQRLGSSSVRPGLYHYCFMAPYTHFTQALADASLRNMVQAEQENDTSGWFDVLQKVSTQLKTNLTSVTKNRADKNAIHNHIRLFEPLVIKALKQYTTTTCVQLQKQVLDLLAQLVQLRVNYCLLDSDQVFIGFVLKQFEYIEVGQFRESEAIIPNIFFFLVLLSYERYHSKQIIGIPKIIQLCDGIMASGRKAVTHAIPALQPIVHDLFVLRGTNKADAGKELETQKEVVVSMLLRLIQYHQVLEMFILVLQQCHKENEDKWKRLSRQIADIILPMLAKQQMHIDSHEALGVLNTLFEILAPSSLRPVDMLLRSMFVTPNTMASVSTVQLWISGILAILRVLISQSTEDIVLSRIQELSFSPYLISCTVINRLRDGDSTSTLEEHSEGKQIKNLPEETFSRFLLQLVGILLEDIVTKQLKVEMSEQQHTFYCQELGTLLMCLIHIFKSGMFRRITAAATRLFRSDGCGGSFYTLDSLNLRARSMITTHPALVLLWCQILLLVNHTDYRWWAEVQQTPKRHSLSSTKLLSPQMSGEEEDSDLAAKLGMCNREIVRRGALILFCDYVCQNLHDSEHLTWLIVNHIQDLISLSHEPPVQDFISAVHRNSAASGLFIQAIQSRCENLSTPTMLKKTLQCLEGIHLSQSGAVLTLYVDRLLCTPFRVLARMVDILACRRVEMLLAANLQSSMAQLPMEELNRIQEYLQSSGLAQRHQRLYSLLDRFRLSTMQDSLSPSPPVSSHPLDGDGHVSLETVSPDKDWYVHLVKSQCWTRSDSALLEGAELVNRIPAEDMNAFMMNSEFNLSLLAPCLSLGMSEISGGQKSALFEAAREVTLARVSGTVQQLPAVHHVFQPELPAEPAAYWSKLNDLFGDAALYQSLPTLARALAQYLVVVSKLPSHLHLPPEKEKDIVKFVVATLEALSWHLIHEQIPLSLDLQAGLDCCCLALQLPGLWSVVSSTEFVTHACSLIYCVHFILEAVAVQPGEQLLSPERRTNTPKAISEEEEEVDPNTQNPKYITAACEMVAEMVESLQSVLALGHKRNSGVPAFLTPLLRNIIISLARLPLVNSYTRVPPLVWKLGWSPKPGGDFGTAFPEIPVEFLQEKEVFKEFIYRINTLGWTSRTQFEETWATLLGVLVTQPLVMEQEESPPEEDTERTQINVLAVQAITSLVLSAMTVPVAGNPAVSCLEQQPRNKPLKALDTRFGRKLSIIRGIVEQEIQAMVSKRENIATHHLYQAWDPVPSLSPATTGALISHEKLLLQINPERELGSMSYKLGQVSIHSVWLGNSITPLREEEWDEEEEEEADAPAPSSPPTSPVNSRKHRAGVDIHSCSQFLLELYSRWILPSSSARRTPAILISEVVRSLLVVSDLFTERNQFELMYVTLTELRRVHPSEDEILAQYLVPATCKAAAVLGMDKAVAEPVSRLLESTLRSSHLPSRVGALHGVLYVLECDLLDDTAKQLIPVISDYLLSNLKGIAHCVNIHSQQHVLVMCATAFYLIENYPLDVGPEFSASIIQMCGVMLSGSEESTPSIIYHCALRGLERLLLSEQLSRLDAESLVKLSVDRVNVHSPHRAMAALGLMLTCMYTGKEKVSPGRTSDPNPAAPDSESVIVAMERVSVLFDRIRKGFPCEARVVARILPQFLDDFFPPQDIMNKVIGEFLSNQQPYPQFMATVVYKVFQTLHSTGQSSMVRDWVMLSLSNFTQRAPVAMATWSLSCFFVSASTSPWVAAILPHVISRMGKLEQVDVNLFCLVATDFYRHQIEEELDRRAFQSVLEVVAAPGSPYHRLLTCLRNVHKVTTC
Test: Q46 Radioligand Binding Assay (RBA)
Settings: displacement of 10 nM [3H3]MK-3328 from 5 μM aggregated Q46 protein, 60 minutes at 37° C.
Procedure: Q46 Radioligand Binding Assay
For radioligand binding assays (RBA) GST-Q46 protein was generated based on a previous publication (Scherzinger et al. Cell, Vol. 90, 549-558, Aug. 8, 1997). For experiments 33 μM GST-Q46 was incubated with 150 μg/mL thrombin in assay buffer (150 mM NaCl, 50 mM Tris pH 8.0) and 2 mM CaCl2 for 16 hours at 37° C. Aggregated Q46 was pelleted by centrifugation for 5 minutes at 13,000 rpm in a bench top centrifuge and re-dissolved in the same volume of assay buffer. Test compounds were prepared by titration in DMSO at 11 concentrations from 33 μM to 1 nM. For the RBA, Q46 protein aggregates and test compounds were pre-incubated in assay buffer for 20 minutes at room temperature, in 140 μL/well in a 96-well plate (pp, round bottom). Then, ligand was added in 10 μL/well and incubated for 60 minutes at 37° C. Final assay concentrations were […] test compound, 5 μM Q46 protein (equivalent monomer concentration) and 10 nM ligand [^3H3]MK-3328 (Harrision et al., ACS Med. Chem. Lett., 2 (2011), pp 498-502). Samples were transferred onto GF/B filter plates and washed 2× with 200 μL PBS using a Filtermate Harvester. After drying filter plates for 1 hour at 37° C., the back of the plates was sealed with foil and 30 μl/well scintillation fluid (Packard MicroScint 40) was added, incubated for […] 15 minutes in the dark and counted in a TopCount reader. For analysis, replicate data from independent assay plates were normalized towards 0% and 100% inhibition using control wells of vehicle (0% inhibition) and 3 μM unlabelled MK-3328 (100% inhibition). IC50 values were determined with a sigmoidal inhibition model with four variables (top, bottom, slope, IC50) in a global fit using the normalized replicate data.
Work on `CNc1c(-c2cc3c(o2)CCN(C(=O)OC(C)(C)C)C3)nc2cc(C#N)ccn12` [tert-butyl 2-[7-cyano-3-(methylamino)imidazo[1,2-a]pyridin-2-yl]-4H,5H,6H,7H-furo[3,2-c]pyridine-5-carboxylate] yielded an IC50 of 0.1 to 0.5 µM.
For `CNc1c(-c2cc3cc(F)ccc3o2)nc2ccccn12` [2-(5-fluoro-1-benzofuran-2-yl)-N-methylimidazo[1,2-a]pyridin-3-amine], the IC50 was greater than 0.5 µM.
Work on `CNc1c(-c2nc3ccc(OC)cc3n2C)nc2cc(C#N)ccn12` [2-(6-methoxy-1-methyl-1H-1,3-benzodiazol-2-yl)-3-(methylamino)imidazo[1,2-a]pyridine-7-carbonitrile] yielded an IC50 of less than 0.1 µM.
For `C#Cc1ccn2c(NC)c(-c3cc4cc(OC)ccc4o3)nc2c1` [7-ethynyl-2-(5-methoxy-1-benzofuran-2-yl)-N-methylimidazo[1,2-a]pyridin-3-amine], the IC50 was less than 0.1 µM.
Molecule `CNc1c(-c2ccc(OCc3cnc(OC)cn3)cn2)nc2cc(C#N)ccn12` [2-{5-[(5-methoxypyrazin-2-yl)methoxy]pyridin-2-yl}-3-(methylamino)imidazo[1,2-a]pyridine-7-carbonitrile] has an IC50 of less than 0.1 µM.
In the case of `COCc1c(-c2cc3cc(OC)ccc3o2)nc2cc(C#N)ccn12` [2-(5-methoxy-1-benzofuran-2-yl)-3-(methoxymethyl)imidazo[1,2-a]pyridine-7-carbonitrile], the IC50 is reported as less than 0.1 µM.
In the case of `CNc1c(-c2cc3cc(OC)ccc3o2)nc2cc(C#C[Si](C)(C)C)ccn12` [2-(5-methoxy-1-benzofuran-2-yl)-N-methyl-7-[2-(trimethylsilyl)ethynyl]imidazo[1,2-a]pyridin-3-amine], the IC50 is reported as less than 0.1 µM.
Work on `N#Cc1ccn2c(N)c(-c3cc4cc(OCCF)ccc4o3)nc2c1` [3-amino-2-[5-(2-fluoroethoxy)-1-benzofuran-2-yl]imidazo[1,2-a]pyridine-7-carbonitrile] yielded an IC50 of less than 0.1 µM.
In the case of `CNc1c(-c2ccc3occc3c2)nc2cc(C#N)ccn12` [2-(1-benzofuran-5-yl)-3-(methylamino)imidazo[1,2-a]pyridine-7-carbonitrile], the IC50 is reported as 0.1 to 0.5 µM.
Molecule `COCCNc1c(-c2cc3cc(OC)ccc3o2)nc2ccccn12` [2-(5-methoxy-1-benzofuran-2-yl)-N-(2-methoxyethyl)imidazo[1,2-a]pyridin-3-amine] has an IC50 of 0.1 to 0.5 µM.
`C#CCOc1ccc(-c2nc3cc(C#N)ccn3c2NC)cc1` [3-(methylamino)-2-[4-(prop-2-yn-1-yloxy)phenyl]imidazo[1,2-a]pyridine-7-carbonitrile] gave an IC50 of 0.1 to 0.5 µM.
`CNc1c(-c2ccc(Br)o2)nc2cc(C#N)ccn12` [2-(5-bromofuran-2-yl)-3-(methylamino)imidazo[1,2-a]pyridine-7-carbonitrile] gave an IC50 of 0.1 to 0.5 µM.
For `COc1ccc2oc(-c3nc4cc(C#N)ccn4c3N)cc2c1` [3-amino-2-(5-methoxy-1-benzofuran-2-yl)imidazo[1,2-a]pyridine-7-carbonitrile], the IC50 was less than 0.1 µM.
Work on `CNc1c(-c2cc3cc(O)ccc3o2)nc2cc(C#N)ccn12` [2-(5-hydroxy-1-benzofuran-2-yl)-3-(methylamino)imidazo[1,2-a]pyridine-7-carbonitrile] yielded an IC50 of less than 0.1 µM.
Work on `CNc1c(-c2cc3cc(Br)ccc3o2)nc2cc(C#N)ccn12` [2-(5-bromo-1-benzofuran-2-yl)-3-(methylamino)imidazo[1,2-a]pyridine-7-carbonitrile] yielded an IC50 of less than 0.1 µM.
For `CNc1c(-c2ccc(C#N)cc2)nc2cc(C#N)ccn12` [2-(4-cyanophenyl)-3-(methylamino)imidazo[1,2-a]pyridine-7-carbonitrile], the IC50 was less than 0.1 µM.
In the case of `COc1ccc2oc(-c3cn4ccc(C#N)cc4n3)cc2c1` [2-(5-methoxy-1-benzofuran-2-yl)imidazo[1,2-a]pyridine-7-carbonitrile], the IC50 is reported as less than 0.1 µM.
`CNc1c(-c2ccc(OCc3cnc(OC)cn3)nc2)nc2cc(C#N)ccn12` [2-{6-[(5-methoxypyrazin-2-yl)methoxy]pyridin-3-yl}-3-(methylamino)imidazo[1,2-a]pyridine-7-carbonitrile] showed an IC50 of less than 0.1 µM.
In the case of `COc1ccc2oc(-c3nc4cc(C#N)ccn4c3N(C)C)cc2c1` [3-(dimethylamino)-2-(5-methoxy-1-benzofuran-2-yl)imidazo[1,2-a]pyridine-7-carbonitrile], the IC50 is reported as 0.1 to 0.5 µM.
